Measurements taken from paper PMC8364686, “Safety, tolerability, pharmacokinetics and pharmacodynamics of single oral doses of BI 187004, an inhibitor of 11beta-hydroxysteroid dehydrogenase-1, in healthy male volunteers with overweight or obesity” (Clinical Diabetes and Endocrinology, 2021).

Experiment: Plasma pharmacokinetics of BI 187004 after single oral doses (LC–MS/MS)
Details: male, human, plasma, po; for concentration at 36 h: planned time 36 h; for concentration at 48 h: planned time 48 h; for concentration at 72 h: planned time 72 h; for concentration at 96 h: planned time 96 h; for concentration at 0.5 h: planned time 0.5 h; for concentration at 1 h: planned time 1 h; for concentration at 1.5 h: planned time 1.5 h; for concentration at 2 h: planned time 2 h; for concentration at 2.5 h: planned time 2.5 h; for concentration at 3 h: planned time 3 h; for concentration at 4 h: planned time 4 h; for concentration at 5 h: planned time 5 h; for concentration at 6 h: planned time 6 h; for concentration at 8 h: planned time 8 h; for concentration at 10 h: planned time 10 h; for concentration at 12 h: planned time 12 h
[1] = 160 mg, BI 187004 plasma concentrations, 160 mg single oral, Max
[2] = 160 mg, BI 187004 plasma concentrations, 160 mg single oral, Mean
[3] = 160 mg, BI 187004 plasma concentrations, 160 mg single oral, Median
[4] = 160 mg, BI 187004 plasma concentrations, 160 mg single oral, Min
[5] = 160 mg, BI 187004 plasma concentrations, 160 mg single oral, gMean
[6] = 240 mg, BI 187004 plasma concentrations, Max, 240 mg single oral
[7] = 240 mg, BI 187004 plasma concentrations, Mean, 240 mg single oral
[8] = 240 mg, BI 187004 plasma concentrations, Median, 240 mg single oral
[9] = 240 mg, BI 187004 plasma concentrations, Min, 240 mg single oral
[10] = 240 mg, BI 187004 plasma concentrations, gMean, 240 mg single oral

## N#Cc1ccc2c(c1)[C@H]1CCCN(C(=O)c3ccc4[nH]cnc4c3)[C@H]1C2 [BI 187004]
[1]
  concentration at 36 h: 1390 nM
  concentration at 48 h: 1000 nM
  concentration at 72 h: 312 nM
  concentration at 96 h: 46.8 nM
[2]
  concentration at 36 h: 716 nM
  concentration at 48 h: 457 nM
  concentration at 72 h: 139 nM
  concentration at 96 h: 33.8 nM
[3]
  concentration at 36 h: 604 nM
  concentration at 48 h: 352 nM
  concentration at 72 h: 108 nM
  concentration at 96 h: 31.7 nM
[4]
  concentration at 36 h: 476 nM
  concentration at 48 h: 329 nM
  concentration at 72 h: 85.9 nM
  concentration at 96 h: 28 nM
[5]
  concentration at 36 h: 669 nM
  concentration at 48 h: 414 nM
  concentration at 72 h: 125 nM
  concentration at 96 h: 33.2 nM
160 mg, BI 187004 plasma concentrations, 160 mg single oral, individual subjects
  concentration at 96 h: 30.2 nM
160 mg, C24 gMean (%gCV), 160 mg single oral dose
  concentration at 24 h: 1630 nM
240 mg
  AUC(0-inf): 109 µM·h
  AUC(0-t): 71.7 µM·h
  Cmax: 7120 nM
  Tmax: 1 h
  Vd/F: 124 L
  half-life: 13.4 h
240 mg, BI 187004 plasma concentrations, 240 mg single oral, planned time 24 h, individual subjects
  concentration at 24 h: 2180 nM
[6]
  concentration at 0.5 h: 8440 nM
  concentration at 1 h: 10700 nM
  concentration at 1.5 h: 9030 nM
  concentration at 2 h: 9220 nM
  concentration at 2.5 h: 8510 nM
  concentration at 3 h: 6980 nM
  concentration at 4 h: 8420 nM
  concentration at 5 h: 6780 nM
  concentration at 6 h: 6370 nM
  concentration at 8 h: 5380 nM
  concentration at 10 h: 5800 nM
  concentration at 12 h: 3900 nM
  concentration at 36 h: 1340 nM
  concentration at 48 h: 794 nM
  concentration at 72 h: 323 nM
  concentration at 96 h: 181 nM
240 mg, BI 187004 plasma concentrations, Max, 240 mg single oral, planned time 24 h
  concentration at 24 h: 2630 nM
[7]
  concentration at 0.5 h: 5210 nM
  concentration at 1 h: 7490 nM
  concentration at 1.5 h: 6420 nM
  concentration at 2 h: 6260 nM
  concentration at 2.5 h: 6300 nM
  concentration at 3 h: 5150 nM
  concentration at 4 h: 5510 nM
  concentration at 5 h: 4780 nM
  concentration at 6 h: 4330 nM
  concentration at 8 h: 3850 nM
  concentration at 10 h: 3450 nM
  concentration at 12 h: 2590 nM
  concentration at 36 h: 926 nM
  concentration at 48 h: 508 nM
  concentration at 72 h: 157 nM
  concentration at 96 h: 63.9 nM
240 mg, BI 187004 plasma concentrations, Mean, 240 mg single oral, planned time 24 h
  concentration at 24 h: 2170 nM
[8]
  concentration at 0.5 h: 5530 nM
  concentration at 1 h: 8430 nM
  concentration at 1.5 h: 6890 nM
  concentration at 2 h: 6780 nM
  concentration at 2.5 h: 7270 nM
  concentration at 3 h: 5840 nM
  concentration at 4 h: 5680 nM
  concentration at 5 h: 5430 nM
  concentration at 6 h: 5270 nM
  concentration at 8 h: 4370 nM
  concentration at 10 h: 3700 nM
  concentration at 12 h: 2890 nM
  concentration at 36 h: 887 nM
  concentration at 48 h: 461 nM
  concentration at 72 h: 98.9 nM
  concentration at 96 h: 36.4 nM
240 mg, BI 187004 plasma concentrations, Median, 240 mg single oral, planned time 24 h
  concentration at 24 h: 2320 nM
[9]
  concentration at 0.5 h: 130 nM
  concentration at 1 h: 440 nM
  concentration at 1.5 h: 811 nM
  concentration at 2 h: 543 nM
  concentration at 2.5 h: 605 nM
  concentration at 3 h: 388 nM
  concentration at 4 h: 575 nM
  concentration at 5 h: 494 nM
  concentration at 6 h: 452 nM
  concentration at 8 h: 181 nM
  concentration at 10 h: 313 nM
  concentration at 12 h: 258 nM
  concentration at 36 h: 567 nM
  concentration at 48 h: 255 nM
  concentration at 72 h: 54.1 nM
  concentration at 96 h: 15.8 nM
240 mg, BI 187004 plasma concentrations, Min, 240 mg single oral, planned time 24 h
  concentration at 24 h: 1530 nM
[10]
  concentration at 0.5 h: 3180 nM
  concentration at 1 h: 5340 nM
  concentration at 1.5 h: 5150 nM
  concentration at 2 h: 4710 nM
  concentration at 2.5 h: 4840 nM
  concentration at 3 h: 3840 nM
  concentration at 4 h: 4280 nM
  concentration at 5 h: 3700 nM
